From patent US4559402A, “Pyrazolopyridines and tetrahydro pyrazolopyridines” (Kyorin Seiyaki Kabushiki Kaisha, priority 1983, dated 1985)
Like-named read-outs stand apart in the source and are kept apart here.

How the values were obtained:
[1] = system: Rabbit platelet aggregation induced by arachidonic acid; experiment: Effects on rabbit platelet aggregation in vitro (PRP), arachidonic acid-induced; format: cell-based; conditions: Oryctolagus cuniculus, 0.05 h, arachidonic acid 10^-4 M, 3 min. preincubation, read-out: IC100 (concentration which gave maximum (100%) inhibition against platelet aggregation)
Experimental: (§1) The antiaggregant activity in vitro of the present compounds was studied in platelet rich plasma from rabbit and man.
(§2) Blood was taken from the femoral artery of rabbit with a syringe containing sodium citrate (3.8%, 1 vol. in 9 vol. of blood). The citrated blood was centrifuged at 800 rpm. The supernatants were stored at 10° C. until use as platelet rich plasma (PRP) in the subsequent experiment. Platelet aggregation was determined with aggregometer (D-P 247 E, SIENCO Ltd.). Stock solution of test compounds was made by suspending at a concentration of 10 mg/ml in 1% gum arabic solution. Further, dilution was made with 0.9% saline. PRP was preincubated for 3 min. with the test compounds, and then arachidonic acid as aggregant was added at final concentration of 10^-4 M.
(§3) IC100 -values are the concentrations which gave maximum (100%) inhibition against platelet aggregation caused by arachidonic acid.

[2] = system: human platelet aggregation, arachidonic acid-induced; experiment: Effects on human platelet aggregation in vitro (PRP), arachidonic acid-induced; format: cell-based
Experimental: as §1, §2, §3
(§4) Blood samples were taken from median cubital vein of 5 healthy volunteers (male, 30 to 42 age) with plastic syringe. The citrated blood (sodium citrate 1 vol. in 9 vol. of blood) was centrifuged at 1000 rpm. The supernatant (PRP) was stored at 10° C. and used within 5 hours. Arachidonic acid (4-8×10^-4 M) and collagen (6-8 μg/ml, SIGMA, Type III) were used as aggregants. Other procedures were the same as in Experiment 1.

[3] = Acute Toxicity (LD50), mice; conditions: mouse, in vivo
[4] = Effect on blood viscosity (whole blood and plasma viscosities, hematocrit); format: in vivo, Male Wistar rats; conditions: rat, 10 mg/kg p.o. twice a day for 2 days
Experimental: Male Wistar rats weighing 300-380 g were used in this experiment. Rats were administered orally 10 mg/kg twice a day of the compound of Example 2 for 2 days. One hour after the last treatment, rats were anaesthetized with pentobarbital 35 mg/kg ip, and then blood was taken from vena cava caudalis. EDTA was added at a final concentration of 2 mM.
Whole blood and plasma viscosities were measured with rotational viscometer (Contraves LS-30, shear rate 0-128.5 sec.^-1, 37° C.) and hematocrit was determined by microhematocrit centrifugation (13,000 g for 5 min.).

[5] = Acute Toxicity (LD50), rats; conditions: rat, in vivo
[6] = Gastro-intestinal lesions in rats (ulcerogenic activity); parameters: species or system Male Wistar rats; conditions: rat, in vivo, po
Experimental: Male Wistar rats weighing 250 to 300 g were used in this experiment. Ulcer formation under the satiety condition was studied as follows: Rats not fasted prior to experiment were administered orally with test compounds. The animals were allowed free access to diet and water for 24 hours after the drug administration until sacrificed by exsanguination. The stomach and the intestine were removed and examined for lesions.
In the other study, rats had been deprived of food and water for 24 hours before drug administration. The animals were administered orally with the compound of Example 2 and aspirin and then they had free access to water but not to diet. Twenty-four hours later, the animals were killed by the exsanguination. The stomach and the intestine were removed and observed carefully to know whether or not lesions were present.
Units for the UD50values: mg/kg, p.o. UD50 means the dose that
cause the lesions in 50% of animals.

[7] = system: arachidonic acid-induced aggregation of platelets from rabbit; experiment: Ex vivo studies on platelet aggregation (PRP from rabbit administered orally), arachidonic acid-induced; format: in vivo; conditions: oral, blood taken one hour after administration, FIG. 1
Experimental: To know the absorbability and potency of the compound of this invention, another platelet aggregation tests were done using the PRP from rabbit which had been administered orally with the drugs.
Rabbits were administered orally with the compound of Example 2 or aspirin. One hour after the drug administration, blood was taken from the femoral artery. The methods for preparing PRP and determining platelet aggregation were the same as Experiment 1.

[8] = system: human platelet aggregation, collagen-induced; experiment: Effects on human platelet aggregation in vitro (PRP), collagen-induced; format: cell-based; conditions: 0.05 h, collagen 6-8 μg/ml, read-out: concentration that completely inhibited platelet aggregation
Experimental: as §1, §2, §3, §4

[9] = iv, read-out: Acute Toxicity LD50, I.V.
[10] = po, read-out: Acute Toxicity LD50, P.O.

## CCOC(=O)C(C)N1C=C(C(=O)c2c(C)nn3ccccc23)CCC1 (centres unmarked) [Example 10, 3-[1-(1-ethoxycarbonylethyl)-1,4,5,6-tetrahydronicotinoyl]-2-methylpyrazolo-[1,5-a]pyridine]
[1]
  IC100: 0.3 µg/mL

## Cc1nn2ccccc2c1C(=O)c1cccnc1 [Example 1, 2-methyl-3-nicotinoylpyrazolo[1,5-a]pyridine]
[1]
  IC100: 6 µg/mL

## Cc1nn2c(c1C(=O)C1=CNCCC1)CCCC2 [Example 3, 2-methyl-3-(1,4,5,6-tetrahydronicotinoyl)-4,5,6,7-tetrahydropyrazole[1,5-a]pyridine]
[1]
  IC100: 0.2 µg/mL

## Cc1nn2ccccc2c1C(=O)C1=CN(C(=O)Nc2ccc(Cl)cc2)CCC1 [Example 4, 2-methyl-3-[1-(p-chlorophenylcarbamoyl)-1,4,5,6-tetrahydronicotinoyl]-pyrazolo[1,5-a]pyridine]
[1]
  IC100: 1 µg/mL

## Cc1nn2ccccc2c1C(=O)C1=CNCCC1 [Example 2, 2-methyl-3-(1,4,5,6-tetrahydronicotinoyl)pyrazolo[1,5-a]pyridine]
[2]; arachidonic acid and collagen, considered to be due to individual difference
  difference in the IC100-values between individuals: About 300 folds
[2]; comparison of the two aggregants
  inhibitory activity against both arachidonic acid- and collagen-induced platelet aggregation: almost the same inhibitory activity
[3]; [9]
  LD50: 125 to 150 mg/kg
[3]; [10]
  LD50: > 1000 mg/kg
[1]
  IC100: 0.03 µg/mL
[4]
  effect on hematocrit: no effects
  effect on plasma viscosity: no effects
  reduction of whole blood viscosity, shear rate 0.1285 sec.^-1: 50.1%
  reduction of whole blood viscosity, shear rate 0.514 sec.^-1: 36.1%
  reduction of whole blood viscosity, shear rate 6.425 sec.^-1: 23.5%
  reduction of whole blood viscosity, shear rate 25.7 sec.^-1: 19.2%
  reduction of whole blood viscosity, shear rate 128.5 sec.^-1: 12.0%
[4]; 37° C.
  Plasma Viscosity: 1.14 ± 0.01 mPS
[4]; 37° C., * p < 0.05 vs vehicle
  Whole Blood Viscosity, shear rate 0.1285 sec.^-1: 24.8 ± 2.71 mPS
  Whole Blood Viscosity, shear rate 0.514 sec.^-1: 17.2 ± 1.31 mPS
  Whole Blood Viscosity, shear rate 6.425 sec.^-1: 7.31 ± 0.36 mPS
  Whole Blood Viscosity, shear rate 25.7 sec.^-1: 5.18 ± 0.12 mPS
  Whole Blood Viscosity, shear rate 128.5 sec.^-1: 3.68 ± 0.08 mPS
[4]; microhematocrit centrifugation
  Hematocrit: 46.0 ± 0.71%
[5]; [9]
  LD50: > 100 mg/kg
[5]; [10]
  LD50: > 1000 mg/kg
[6]; UD50 (dose that cause the lesions in 50% of animals), Fasting
  TD50 at 24 h: 300 to 500 mg/kg
[6]; UD50 (dose that cause the lesions in 50% of animals), Satiety
  TD50 at 24 h: > 1000 mg/kg
[7]
  inhibitory activity on arachidonic acid-induced platelet aggregation relative to aspirin: several times as high as aspirin

## CC(=O)Oc1ccccc1C(=O)O [Aspirin, reference compound]
[1]
  IC100: 4 µg/mL
[8]
  IC100: 100 µg/mL
[6]; deprived of food and water for 24 hours before, examined 24 hours after, read-out: UD50 (dose that cause the lesions in 50% of animals), Fasting
  TD50 at 24 h: 25 to 50 mg/kg
[6]; not fasted, 24 hours, read-out: UD50 (dose that cause the lesions in 50% of animals), Satiety
  TD50 at 24 h: 230 mg/kg
